In patent US9624182B2, “Compounds as lysophosphatidic acid receptor antagonists” (Amira Pharmaceuticals, Inc., priority 2009, dated 2017):

Target: T1, human LPA1 (Homo sapiens, UniProt Q92633)
T1 construct: the full-length cDNA for human LPA1 was obtained by PCR of the reverse transcription reaction; expressed in transfected cells
Assay: LPA1 calcium flux assay
Type: cell-based
Conditions: CHO cells expressing human LPA1, stimulated with 10 nM LPA; read-out: HLPA1 Ca Flux IC50
How it was run: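 CHO cells stably expressing cloned human LPA1, serum-starved overnight, loaded with Calcium 4 dye 1 h at 37 °C in HBSS/20 mM Hepes with 0.3% fatty-acid-free HSA. Compounds preincubated 30 min at room temperature, then cells stimulated with 10 nM LPA; intracellular Ca2+ read by fluorescence. IC50 from titration curves.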

T1 sequence (Q92633 whole entry): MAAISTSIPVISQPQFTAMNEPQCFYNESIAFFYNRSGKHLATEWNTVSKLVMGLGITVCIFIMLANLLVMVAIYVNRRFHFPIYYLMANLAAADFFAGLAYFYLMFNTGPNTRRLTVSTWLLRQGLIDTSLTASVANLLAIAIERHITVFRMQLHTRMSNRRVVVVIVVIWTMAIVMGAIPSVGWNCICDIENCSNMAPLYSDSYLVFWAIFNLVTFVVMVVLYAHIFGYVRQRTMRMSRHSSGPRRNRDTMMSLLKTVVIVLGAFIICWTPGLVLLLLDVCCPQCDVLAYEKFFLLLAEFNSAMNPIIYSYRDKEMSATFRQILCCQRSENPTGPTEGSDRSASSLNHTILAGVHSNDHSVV

SMILES | IC50
Cc1noc(-c2ccc(-c3ccc(C(C(=O)O)C(C)C)cc3)cc2)c1CSCCc1ccccc1 (stereo not drawn) [Compound 1-137, 3-Methyl-2-[4′-(3-methyl-4-phenethylsulfanylmethyl-isoxazol-5-yl)-biphenyl-4-yl]-butyric acid] | < 0.3 µM
CC(=O)N(Cc1ccccc1)CC(O)Cc1c(C)noc1-c1ccc(-c2ccc(C3(C(=O)O)CC3)cc2)cc1 (stereo not drawn) [Compound 1-138, 1-(4′-{4-[3-(Acetyl-benzyl-amino)-2-hydroxy-propyl]-3-methyl-isoxazol-5-yl}-biphenyl-4-yl)-cyclopropanecarboxylic acid] | 1 to 50 µM
Cc1noc(-c2ccc(-c3ccc(C4(C(=O)O)CC4)cc3)cc2)c1/C=C/CN(Cc1ccccc1)S(C)(=O)=O [Compound 1-139, 1-(4′-{4-[3-(Benzyl-methanesulfonyl-amino)-propenyl]-3-methyl-isoxazol-5-yl}-biphenyl-4-yl)-cyclopropanecarboxylic acid] | < 0.3 µM
Cc1noc(-c2ccc(-c3ccc(C4(CC(=O)O)CC4)cc3)cc2)c1C(O)CCCc1ccccc1 (stereo not drawn) [Compound 1-140, (1-{4′-[4-(1-Hydroxy-4-phenyl-butyl)-3-methyl-isoxazol-5-yl]-biphenyl-4-yl}-cyclopropyl)-acetic acid] | < 0.3 µM
CC(=O)N(CCc1c(C)noc1-c1ccc(-c2ccc(C3(C(=O)O)CC3)cc2)cc1)Cc1ccccc1 [Compound 1-142, 1-(4′-{4-[2-(Acetyl-benzyl-amino)-ethyl]-3-methyl-isoxazol-5-yl}-biphenyl-4-yl)-cyclopropanecarboxylic acid] | 1 to 50 µM
Cc1noc(-c2ccc(-c3ccc(C4(C(=O)O)CC4)cc3)cc2)c1CCN(Cc1ccccc1)S(C)(=O)=O [Compound 1-143, 1-(4′-{4-[2-(Benzyl-methanesulfonyl-amino)-ethyl]-3-methyl-isoxazol-5-yl}-biphenyl-4-yl)-cyclopropanecarboxylic acid] | 1 to 50 µM
Cc1noc(-c2ccc(-c3ccc(C(Cc4ccccc4)C(=O)O)cc3)cc2)c1CSCCc1ccccc1 (stereo not drawn) [Compound 1-145, 2-[4′-(3-Methyl-4-phenethylsulfanylmethyl-isoxazol-5-yl)-biphenyl-4-yl]-3-phenyl-propionic acid] | < 0.3 µM
CCOC(CCCc1ccccc1)c1c(C)noc1-c1ccc(-c2ccc(C3(C(=O)O)CC3)cc2)cc1 (stereo not drawn) [Compound 1-147, 1-{4′-[4-(1-Ethoxy-4-phenyl-butyl)-3-methyl-isoxazol-5-yl]-biphenyl-4-yl}-cyclopropanecarboxylic acid] | 0.3 to 1 µM
COC(CCCc1ccccc1)c1c(C)noc1-c1ccc(-c2ccc(C3(C(=O)O)CC3)cc2)cc1 (stereo not drawn) [Compound 1-148, 1-{4′-[4-(1-Methoxy-4-phenyl-butyl)-3-methyl-isoxazol-5-yl]-biphenyl-4-yl}-cyclopropanecarboxylic acid] | < 0.3 µM
Cc1noc(-c2ccc(-c3ccc(C4(C(=O)O)CC4)cc3)cc2)c1NCCC(C)(C)C [Compound 1-151, 1-{4′-[4-(3,3-Dimethyl-butylamino)-3-methyl-isoxazol-5-yl]-biphenyl-4-yl}-cyclopropanecarboxylic acid] | 0.3 to 1 µM
Cc1noc(-c2ccc(-c3ccc(C4(C(=O)O)CC4)cc3)cc2)c1CO [Compound 1-152, 1-[4′-(4-Hydroxymethyl-3-methyl-isoxazol-5-yl)-biphenyl-4-yl]-cyclopropanecarboxylic acid] | 1 to 50 µM
Cc1noc(-c2ccc(-c3ccc(C4(C(=O)O)CC4)cc3)cc2)c1C(=O)CCc1ccccc1 [Compound 1-157, 1-{4′-[3-Methyl-4-(3-phenyl-propionyl)-isoxazol-5-yl]-biphenyl-4-yl}-cyclopropanecarboxylic acid] | 1 to 50 µM
Cc1noc(-c2ccc(-c3ccc(C4(C(=O)O)CC4)cc3)cc2)c1C(O)/C=C/c1ccccc1 (stereo not drawn) [Compound 1-158, 1-{4′-[4-((E)-1-Hydroxy-3-phenyl-allyl)-3-methyl-isoxazol-5-yl]-biphenyl-4-yl}-cyclopropanecarboxylic acid] | < 0.3 µM
Cc1noc(-c2ccc(-c3ccc(C4(C(=O)O)CC4)cc3)cc2)c1C(=O)CCc1cccc(C(F)(F)F)c1 [Compound 1-160, 1-(4′-{3-Methyl-4-[3-(3-trifluoromethyl-phenyl)-propionyl]-isoxazol-5-yl}-biphenyl-4-yl)-cyclopropanecarboxylic acid] | 1 to 50 µM
Cc1noc(-c2ccc(-c3ccc(C4(C(=O)O)CC4)cc3)cc2)c1C(O)/C=C/c1cccc(C(F)(F)F)c1 (stereo not drawn) [Compound 1-161, 1-(4′-{4-[(E)-1-Hydroxy-3-(3-trifluoromethyl-phenyl)-allyl]-3-methyl-isoxazol-5-yl}-biphenyl-4-yl)-cyclopropanecarboxylic acid] | < 0.3 µM
Cc1noc(-c2ccc(-c3ccc(CC(=O)O)cc3)cc2)c1NC(C)CCc1cccc(F)c1 (stereo not drawn) [Compound 1-165, (4′-{4-[3-(3-Fluoro-phenyl)-1-methyl-propylamino]-3-methyl-isoxazol-5-yl}-biphenyl-4-yl)-acetic acid] | < 0.3 µM
CCCC(O)c1c(C)noc1-c1ccc(-c2ccc(C3(C(=O)O)CC3)cc2)cc1 (stereo not drawn) [Compound 1-166, 1-{4′-[4-(1-Hydroxy-butyl)-3-methyl-isoxazol-5-yl]-biphenyl-4-yl}-cyclopropanecarboxylic acid] | 1 to 50 µM
Cc1noc(-c2ccc(-c3ccc(CC(=O)O)cc3)cc2)c1CC(F)(F)CCc1ccccc1 [Compound 1-170, {4′-[4-(2,2-Difluoro-4-phenyl-butyl)-3-methyl-isoxazol-5-yl]-biphenyl-4-yl}-acetic acid] | < 0.3 µM
CCC(C(=O)O)c1ccc(-c2ccc(-c3onc(C)c3C(O)CCCc3ccccc3C(F)(F)F)cc2)cc1 (stereo not drawn) [Compound 1-171, 2-(4′-{4-[1-Hydroxy-4-(2-trifluoromethyl-phenyl)-butyl]-3-methyl-isoxazol-5-yl}-biphenyl-4-yl)-butyric acid] | 0.3 to 1 µM
Cc1noc(-c2ccc(-c3ccc(C4(CC(=O)O)CC4)cc3)cc2)c1CC(F)(F)CCc1ccccc1 [Compound 1-175, (1-{4′-[4-(2,2-Difluoro-4-phenyl-butyl)-3-methyl-isoxazol-5-yl]-biphenyl-4-yl}-cyclopropyl)-acetic acid] | < 0.3 µM
Cc1noc(-c2ccc(-c3ccc(CC(=O)O)cc3)cc2)c1NC(C)CCc1cccc(C(F)(F)F)c1 (stereo not drawn) [Compound 1-181, (4′-{3-Methyl-4-[1-methyl-3-(3-trifluoromethyl-phenyl)-propylamino]-isoxazol-5-yl}-biphenyl-4-yl)-acetic acid] | 0.3 to 1 µM
Cc1noc(-c2ccc(-c3ccc(CC(=O)O)cc3)cc2)c1NC(C)CCc1cccc(Cl)c1 (stereo not drawn) [Compound 1-182, (4′-{4-[3-(3-Chloro-phenyl)-1-methyl-propylamino]-3-methyl-isoxazol-5-yl}-biphenyl-4-yl)-acetic acid] | < 0.3 µM
Cc1noc(-c2ccc(-c3ccc(C4(CC(=O)O)CC4)cc3)cc2)c1NC(C)CCc1cccc(C(F)(F)F)c1 (stereo not drawn) [Compound 1-183, [1-(4′-{3-Methyl-4-[1-methyl-3-(3-trifluoromethyl-phenyl)-propylamino]-isoxazol-5-yl}-biphenyl-4-yl)-cyclopropyl]-acetic acid] | < 0.3 µM
Cc1noc(-c2ccc(-c3ccc(C4(CC(=O)O)CC4)cc3)cc2)c1NC(C)CCc1cccc(Cl)c1 (stereo not drawn) [Compound 1-184, [1-(4′-{4-[3-(3-Chloro-phenyl)-1-methyl-propylamino]-3-methyl-isoxazol-5-yl}-biphenyl-4-yl)-cyclopropyl]-acetic acid] | < 0.3 µM
